Measured values reported in patent US20240254089A1, “MODULATORS OF MAS-RELATED G-PROTEIN RECEPTOR X4 AND RELATED PRODUCTS AND METHODS” (ESCIENT PHARMACEUTICALS, INC., priority 2020, published 2024).
Where two headings read alike, the source gives them in different places.

Target: T1, human MRGPR X4 (Homo sapiens, UniProt Q96LA9)
T1 construct: expressed in transfected cells
Experiment: MRGPR X4 antagonist activity, IP-One Gq HTRF assay in stably transfected HEK cells
Assay type: cell-based
Description: HEK cells stably transfected to express human MIRGPR X4 were maintained in an incubator at 37° C. with 5% CO2 and grown in DMEM media with 10% fetal bovine serum (FBS) and […] each of sodium pyruvate, Glutamax, penicillin/streptomycin, and Geneticin. HEK cells stably transfected to express mouse MRGPR A1 were maintained in the same incubator and grown in DMEM media with 10% FBS, 1% each of sodium pyruvate, Glutamax, penicillin/streptomycin, Geneticin, and 2.2 mg/mL Hygromycin.
Cells were plated in a 384-well assay plate at 20,000 cells per well in 12 μL of Opti-MEM and kept in an incubator overnight. On the day of the assay, compounds solubilized at 10 mM in DMSO were added as a 10-point curve (10 uM final top concentration with 1:3 serial dilutions) using a Tecan D300E digital dispenser. Agonists were diluted in assay buffer (final concentrations of 5.7 mM Tris-HCl, 43 mM NaCl, 50 mM LiCl, pH=8) and 2 μL of the appropriate agonist are added to each well. Final concentrations of agonists were 10 μM bilirubin, 20 μM deoxycholic acid, or 100 μM conjugated bilirubin (obtained from Lee Biosolutions, catalog #910-12). Final concentrations of DMSO were kept consistent across the plate. Plates were incubated in the dark for 1 h at 37° C. and then for 30 minutes at room temperature. IP-1 standards and HTRF detection reagents were added according to the IP-One—Gq Kit purchased from Cisbio (part number 62IPAPEJ) and incubated in the dark for 1 h at room temperature. The plate was read on a Molecular Devices SpectraMax iD5 plate reader. The HTRF ratio was calculated from the raw data and graphed using GraphPad Prism to calculate an IC50 value for each compound.

[1] = versus 20 μM deoxycholic acid agonist, HEK cells expressing human MRGPR X4, read-out: MRGPRX4 Antagonist Activity

T1 sequence (Q96LA9 whole entry): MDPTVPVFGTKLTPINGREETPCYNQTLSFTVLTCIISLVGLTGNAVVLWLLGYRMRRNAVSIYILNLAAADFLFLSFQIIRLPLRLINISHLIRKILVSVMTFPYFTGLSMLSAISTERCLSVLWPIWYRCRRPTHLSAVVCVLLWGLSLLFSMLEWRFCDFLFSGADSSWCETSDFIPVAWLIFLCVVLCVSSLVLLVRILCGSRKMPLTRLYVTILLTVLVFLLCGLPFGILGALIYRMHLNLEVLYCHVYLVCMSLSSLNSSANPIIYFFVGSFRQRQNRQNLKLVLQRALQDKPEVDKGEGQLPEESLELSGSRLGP

| Compound | IC50 | IC50 [1] |
| --- | --- | --- |
| Cc1ccc(Cn2nc(C(=O)NCCc3ccn(C)n3)c3ccccc32)cc1 [Compound 76] | 501 to 1000 nM |  |
| Cc1cccnc1CCNC(=O)c1nn(Cc2ccc(Cl)cc2)c2ccccc12 [Compound 77] | 501 to 1000 nM |  |
| Cc1ccc(Cn2nc(C(=O)NCCc3ccncc3)c3ccccc32)cc1 [Compound 78] | 501 to 1000 nM |  |
| CCc1nc(CCNC(=O)c2nn(Cc3ccc(Cl)cc3)c3ccccc23)sc1C [Compound 79] | 501 to 1000 nM |  |
| Cc1nnc(CCNC(=O)c2nn(Cc3ccc(Cl)cc3)c3ccccc23)n1C [Compound 80] | 501 to 1000 nM |  |
| O=C(NCCc1nc2c(s1)CCCC2)c1nn(Cc2cccc(F)c2)c2ccccc12 [Compound 81] | 501 to 1000 nM |  |
| O=C(NCCc1nc2c(s1)CCCC2)c1nn(Cc2ccc(OC(F)F)cc2)c2ccccc12 [Compound 82] | 501 to 1000 nM |  |
| Cc1ccc(Cn2nc(C(=O)NCCc3noc(C4CC4)n3)c3ccccc32)cc1 [Compound 83] | 501 to 1000 nM |  |
| Cc1ccc(Cn2nc(C(=O)NCCc3cc4ccccc4s3)c3ccccc32)cc1 [Compound 84] | 501 to 1000 nM |  |
| Cc1ccc(Cn2nc(C(=O)NCCc3noc(C(C)C)n3)c3ccccc32)cc1 [Compound 85] | 501 to 1000 nM |  |
| O=C(NCCc1ccc(C(F)(F)F)nc1)c1nn(Cc2ccc(Cl)cc2)c2ccccc12 [Compound 86] | 501 to 1000 nM |  |
| O=C(NCCc1cccnc1)c1nn(Cc2cccc(Cl)c2)c2ccccc12 [Compound 87] | 501 to 1000 nM |  |
| Cc1nc(CCNC(=O)c2nn(Cc3ccc(Cl)cc3)c3ccccc23)sc1C(=O)O [Compound 88] | 501 to 1000 nM |  |
| O=C(NCCc1cccnc1)c1nn(Cc2ccccc2Cl)c2ccccc12 [Compound 89] | 501 to 1000 nM |  |
| O=C(NCCc1ccno1)c1nn(Cc2ccc(Cl)cc2)c2ccccc12 [Compound 90] | 501 to 1000 nM |  |
| CC(C)c1ccc(Cn2nc(C(=O)NCCc3ccccn3)c3ccccc32)cc1 [Compound 91] | 501 to 1000 nM |  |
| COCCn1cnnc1CCNC(=O)c1nn(Cc2ccc(Cl)cc2)c2ccccc12 [Compound 92] | 501 to 1000 nM |  |
| O=C(NCCc1c[nH]c2ccccc12)c1nn(Cc2ccc(OC(F)(F)F)cc2)c2ccccc12 [Compound 93] | 1000 to 2500 nM |  |
| Cc1ccc(Cn2nc(C(=O)NCCc3cn(C)c4ccccc34)c3ccccc32)cc1 [Compound 94] | 1000 to 2500 nM |  |
| O=C(NCCc1nc2c(s1)CCCC2)c1nn(Cc2ccccc2Cl)c2ccccc12 [Compound 95] | 1000 to 2500 nM |  |
| O=C(NCCc1cccnc1)c1nn(Cc2cccc(F)c2)c2ccccc12 [Compound 96] | 1000 to 2500 nM |  |
| Cc1ccc(Cn2nc(C(=O)NCCc3cnccn3)c3ccccc32)cc1 [Compound 97] | 1000 to 2500 nM |  |
| Cc1cc(Cl)ccc1Cn1nc(C(=O)NCCc2nc3c(s2)CCCC3)c2ccccc21 [Compound 98] | 1000 to 2500 nM |  |
| CC(C)n1cnnc1CCNC(=O)c1nn(Cc2ccc(Cl)cc2)c2ccccc12 [Compound 99] | 1000 to 2500 nM |  |

| Compound | IC50 | IC50 [1] |
| --- | --- | --- |
| O=C(NCCc1ccon1)c1nn(Cc2ccc(Cl)cc2)c2ccccc12 [Compound 100] | 1000 to 2500 nM |  |
| COc1cccc(Cn2nc(C(=O)NCCc3cccnc3)c3ccccc32)c1 [Compound 101] | 1000 to 2500 nM |  |
| O=C(NCCc1cncnc1)c1nn(Cc2ccc(Cl)cc2)c2ccccc12 [Compound 102] | 1000 to 2500 nM |  |
| Cc1ccc(Cn2nc(C(=O)NCCc3nc4ccccc4o3)c3ccccc32)cc1 [Compound 103] | 1000 to 2500 nM |  |
| Cc1ccc(Cn2nc(C(=O)NCCc3ccc[nH]3)c3ccccc32)cc1 [Compound 104] | 1000 to 2500 nM |  |
| O=C(NCCc1noc(-c2ccccc2)n1)c1nn(Cc2ccc(Cl)cc2)c2ccccc12 [Compound 105] | 1000 to 2500 nM |  |
| O=C(NCCc1nnc2n1CCCCC2)c1nn(Cc2ccc(-c3ccccc3)cc2)c2ccccc12 [Compound 106] | 1000 to 2500 nM |  |
| Cc1ccc(Cn2nc(C(=O)NCCc3nncn3C)c3ccccc32)cc1 [Compound 107] | 1000 to 2500 nM |  |
| CC(C)c1ccc(Cn2nc(C(=O)NCCc3nc4c(s3)CCCC4)c3ccccc32)cc1 [Compound 108] | 1000 to 2500 nM |  |
| Cc1ccc(Cn2nc(C(=O)NCCc3nnc(C4CCOCC4)[nH]3)c3ccccc32)cc1 [Compound 109] |  | 1000 to 2500 nM |
| Cc1ccc(Cn2nc(C(=O)NCCc3nc4c(s3)CCCC4)c3cc(Cl)ccc32)cc1 [Compound 110] | 1000 to 2500 nM |  |
| O=C(Nc1ccc2cccnc2c1)c1nn(Cc2ccc(Cl)cc2)c2ccccc12 [Compound 111] | 1000 to 2500 nM |  |
| CC(C)(C)c1ccc(Cn2nc(C(=O)NCCc3ccccn3)c3ccccc32)cc1 [Compound 112] | 1000 to 2500 nM |  |
| Cc1ccc(Cn2nc(C(=O)NCCc3ncnn3C)c3ccccc32)cc1 [Compound 113] | 1000 to 2500 nM |  |
| COc1cc(Cl)ccc1Cn1nc(C(=O)NCCc2cccnc2)c2ccccc21 [Compound 114] | 1000 to 2500 nM |  |
| Cc1cccc(Cn2nc(C(=O)NCCc3cccnc3)c3ccccc32)c1 [Compound 115] | 1000 to 2500 nM |  |
| Cc1ccc(Cn2nc(C(=O)NCCc3nnc4n3CCCCC4)c3cccc(F)c32)cc1 [Compound 116] | 1000 to 2500 nM |  |
| O=C(NCCc1cccc(C(F)(F)F)n1)c1nn(Cc2ccc(Cl)cc2)c2ccccc12 [Compound 117] | 1000 to 2500 nM |  |
| CC(c1ccc(Cl)cc1)n1nc(C(=O)NCCc2nc3c(s2)CCCC3)c2ccccc21 (stereo not shown) [Compound 118] | 1000 to 2500 nM |  |
| Cc1cc(C)nc(CCNC(=O)c2nn(Cc3ccc(Cl)cc3)c3ccccc23)n1 [Compound 119] | 1000 to 2500 nM |  |
| Cc1ccc(CCNC(=O)c2nn(Cc3ccc(OC(F)F)cc3)c3ccccc23)cc1 [Compound 120] | 1000 to 2500 nM |  |
| O=C(NCCc1ccncn1)c1nn(Cc2ccc(Cl)cc2)c2ccccc12 [Compound 121] | 1000 to 2500 nM |  |
| Cc1ccc(Cn2nc(C(=O)NCCc3ccco3)c3ccccc32)cc1 [Compound 122] | 1000 to 2500 nM |  |
| COc1cc(Cl)ccc1Cn1nc(C(=O)NCCc2nc3c(s2)CCCC3)c2ccccc21 [Compound 123] | > 2500 nM |  |

| Compound | IC50 | IC50 [1] |
| --- | --- | --- |
| Cc1ccc(Cn2nc(C(=O)NCCc3ccnn3C)c3ccccc32)cc1 [Compound 124] | > 2500 nM |  |
| O=C(NCCc1cccnc1)c1nn(Cc2ccccc2F)c2ccccc12 [Compound 125] | > 2500 nM |  |
| Cc1ccc(Cn2nc(C(=O)NCCc3ncon3)c3ccccc32)cc1 [Compound 126] | > 2500 nM |  |
| CC(Cc1ccccn1)NC(=O)c1nn(Cc2ccc(Cl)cc2)c2ccccc12 (stereo not shown) [Compound 127] | > 2500 nM |  |
| Cc1ccc(Cn2nc(C(=O)NCCc3cnoc3)c3ccccc32)cc1 [Compound 128] | > 2500 nM |  |
| O=C(NCCc1nnc(C2CCOCC2)[nH]1)c1nn(Cc2cccc(F)c2)c2ccccc12 [Compound 129] |  | > 2500 nM |
| O=C(Nc1cccnc1)c1nn(Cc2ccc(Cl)cc2)c2ccccc12 [Compound 130] | > 2500 nM |  |
| O=C(NCCc1nc2c(s1)CCCC2)c1nn(Cc2ccc(Cl)cc2F)c2ccccc12 [Compound 131] | 100 to 500 nM |  |
| O=C(CNC(=O)c1nn(Cc2ccc(Cl)cc2)c2ccccc12)c1cccnc1 [Compound 132] | 100 to 500 nM |  |
| O=C(Nc1cncnc1)c1nn(Cc2ccc(Cl)cc2)c2ccccc12 [Compound 133] | 1000 to 2500 nM |  |
| O=C(Nc1cnc2ccccc2c1)c1nn(Cc2ccc(Cl)cc2)c2ccccc12 [Compound 134] | 1000 to 2500 nM |  |
| Cc1ccc(Cn2nc(C(=O)NCCc3c[nH]c4ccccc34)c3ccccc32)cc1 [Compound 135, N-(2-(1H-indol-3-yl)ethyl)-1-(4-methylbenzyl)-1H-indazole-3-carboxamide] | 1000 to 2500 nM |  |
| O=C(NCCc1cccnc1)c1nn(Cc2ccc(OC(F)(F)F)cc2)c2ccccc12 [Compound 136, N-(2-(pyridin-3-yl)ethyl)-1-(4-(trifluoromethoxy)benzyl)-1H-indazole-3-carboxamide] | 100 to 500 nM |  |
| CC(C)c1cn(CCNC(=O)c2nn(Cc3ccc(Cl)cc3)c3ccccc23)nn1 [Compound 137, 1-(4-chlorobenzyl)-N-(2-(4-isopropyl-1H-1,2,3-triazol-1-yl)ethyl)-1H-indazole-3-carboxamide] | < 100 nM |  |
| O=C(NCCn1cc(C2CC2)nn1)c1nn(Cc2ccc(Cl)cc2)c2ccccc12 [Compound 138] | < 100 nM |  |
| CC1(c2cn(CCNC(=O)c3nn(Cc4ccc(Cl)cc4)c4ccccc34)nn2)COC1 [Compound 139] | 100 to 500 nM |  |
| CC(C)(O)c1cn(CCNC(=O)c2nn(Cc3ccc(Cl)cc3)c3ccccc23)nn1 [Compound 140] | 501 to 1000 nM |  |
| O=C(NCCn1cc(-c2ccccc2)nn1)c1nn(Cc2ccc(Cl)cc2)c2ccccc12 [Compound 141] | 501 to 1000 nM |  |
| CNCc1cn(CCNC(=O)c2nn(Cc3ccc(Cl)cc3)c3ccccc23)nn1 [Compound 142] |  | > 2500 nM |
| CC(C)c1cnnn1CCNC(=O)c1nn(Cc2ccc(Cl)cc2)c2ccccc12 [Compound 143, 1-(4-chlorobenzyl)-N-(2-(5-isopropyl-1H-1,2,3-triazol-1-yl)ethyl)-1H-indazole-3-carboxamide] | 100 to 500 nM |  |
| O=C(NCCn1cc(-c2cccnc2)nn1)c1nn(Cc2ccc(Cl)cc2)c2ccccc12 [Compound 144, 1-(4-chlorobenzyl)-N-(2-(4-(pyridin-3-yl)-1H-1,2,3-triazol-1-yl)ethyl)-1H-indazole-3-carboxamide] | 100 to 500 nM |  |
| O=C(NCCn1cc(-c2cncnc2)nn1)c1nn(Cc2ccc(Cl)cc2)c2ccccc12 [Compound 145] | 501 to 1000 nM |  |
